Values after ≈ are worked out from the molar mass of the structure shown. Where two headings read alike, the source gives them in different places.
What was measured:
Cathepsin B (human) = biological target: T1, Cathepsin B (human) (Homo sapiens, UniProt P07858); assay: Protease assay, fluorogenic substrate Z-Phe-Arg-AMC: Cathepsin B; type: biochemical
T1 construct: Cathepsin B (human liver) Calbiochem; purchased Calbiochem; host or cells: human liver (tissue-derived)
Excerpt: (§1) 2.1.1. Protease Assays as shown in tables 1 and 2: Cathepsin L (human), Cathepsin B (human), Rhodesain (Trypanosoma brucei rhodesiense), Falcipain 2 (Plasmodium falciparum)
(§2) Enzyme assays used to identify inhibitors of the target cysteine proteases. The effect is detected measuring fluorescence increase due to hydrolysis of fluorogenic substrates by the target enzymes in absence and presence of potential inhibitors.
(§3) • a. Proteins (enzymes): • Cathepsin L (human liver) Calbiochem • Cathepsin B (human liver) Calbiochem • Rhodesain: recombinantly expressed according to ref.: Caffrey, C. R.; Hansell, E.; Lucas, K. D.; Brinen, L. S.; Hernandez, A. A.; Cheng, J.; Gwaltney, S. L., II; Roush, W. R.; Stierhof, Y. D.; Bogyo, M.; Steverding, D.; McKerrow, J. H. Active site mapping, biochemical properties and subcellular localization of rhodesain, the major cysteine protease of Trypanosoma • Falcipain 2: recombinantly expressed according to ref.: Pandey, K. C.; Wang, S. X.; Sijwali, P. S.; Lau, A. L.; McKerrow, J. H.; Rosenthal, P. J. The Plasmodium falciparum cysteine protease falcipain-2 captures its substrate, hemoglobin, via a unique motif. Proc. Natl. Acad. Sci. U.S.A. 2005, 102, 9138-9143. • b. Buffers: • Cathepsin B: 50 mM Tris-Puffer pH 6.5 mit 2 mM DTT, 5 mM EDTA, 200 mM NaCl, 0.005% Brij35 • Cathepsin L: 50 mM Tris-Puffer pH 6.5 mit 2 mM DTT, 5 mM EDTA, 200 mM NaCl, 0.005% Brij35 • Rhodesain: 50 mM Acetat-Puffer pH 5.5 mit 5 mM DTT, 5 mM EDTA, 200 mM NaCl, 0.005% Brij35 • Falcipain 2: 50 mM Acetat-Puffer pH 5.5 mit 5 mM DTT, 5 mM EDTA, 200 mM NaCl, 0.005% Brij35 • c. Substrates: • Cathepsin L: 6,25 µM Z-Phe-Arg-7-amino-4-methylcumarin, HCl von Bachem, Ex 380 nm, Em 460 nm • Cathepsin B: 100 µM Z-Phe-Arg-7-amino-4-methylcumarin, HCl von Bachem, Ex 380 nm, Em 460 nm • Rhodesain: 10µM Z-Phe-Arg-7-amino-4-methylcumarin, HCl von Bachem, Ex 380 nm, Em 460 nm • Falcipain 2: 25µM Z-Phe-Arg-7-amino-4-methylcumarin, HCl von Bachem, Ex 380 nm, Em 460 nm • Reference substance(s)/positive control(s): E64 • d. Solvent for inhibitors and substrates: DMSO 99,5% (GC) DC4540, Sigma • e. Measurement device: Tecan Fluorescence spectrophotometer infinite F200 Pro • f. Well plates: 96 well plates, Lia-Plate White, Greiner bio-one, flat bottom, high binding • g. Methodology: Substrates and inhibitor stock solutions are prepared in DMSO and diluted with the respective assay buffer (final DMSO concentration: […]). Enzyme stock solutions are diluted with assay buffer to yield a fluorescence increase of dF/min ≈ _20. Total volume: 200 µL (180 µL of assay buffer, 5 µL of enzyme solution, 10 µL of DMSO or inhibitor solution, 5 µL of substrate solution). Assays are started by the addition of substrate solution. Fluorescence increase is detected over a period of 10 - 30 min, depending on time dependent (30 min) or non-time dependent (10 min) inhibition. • h. Temp: 25 °C • i. DATA-[…] • Software: Grafit 5.013 • Ki values are calculated from IC50 values (obtained by the 4-parameter IC50 equation) using the Chen-Prusoff equation: Ki=IC50/(1 + [S]/Km)
(§4) In vitro inhibition of cysteine-proteases cruzain (CR) (Trypanosoma cruzi (T. cruzi)), rhodesain (RD) (T. brucei), cathepsin B (CB), falcipain (FP2) (Plasmodium falciparum) and cathepsin L (CL) was assessed by quantification of the resulting fluorescence emission of the proteolytic breakdown of synthetic compound Z-Phe-Arg-AMC (Bachem). The results of this determination are shown in tables 1 and 2 illustrated above.

Cathepsin L (human) = biological target: T2, Cathepsin L (human) (Homo sapiens, UniProt P07711); assay: Protease assay, fluorogenic substrate Z-Phe-Arg-AMC: Cathepsin L; type: biochemical
T2 construct: Cathepsin L (human liver) Calbiochem; purchased Calbiochem; host or cells: human liver (tissue-derived)
T2 sequence (P07711 114-333): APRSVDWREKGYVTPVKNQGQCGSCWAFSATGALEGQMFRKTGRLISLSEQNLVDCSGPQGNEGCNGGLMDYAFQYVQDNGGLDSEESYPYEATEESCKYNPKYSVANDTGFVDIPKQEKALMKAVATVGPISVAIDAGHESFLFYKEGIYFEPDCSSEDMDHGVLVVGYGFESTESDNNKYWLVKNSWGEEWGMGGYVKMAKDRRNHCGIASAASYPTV
Excerpt: as §1, §2, §3, §4

Falcipain 2 = biological target: T3, Falcipain 2 (Plasmodium falciparum, UniProt Q8I6U4); assay: Protease assay, fluorogenic substrate Z-Phe-Arg-AMC: Falcipain 2; type: biochemical; conditions: FP2=Falcipain2
T3 construct: made in house
T3 sequence (Q8I6U4 244-484): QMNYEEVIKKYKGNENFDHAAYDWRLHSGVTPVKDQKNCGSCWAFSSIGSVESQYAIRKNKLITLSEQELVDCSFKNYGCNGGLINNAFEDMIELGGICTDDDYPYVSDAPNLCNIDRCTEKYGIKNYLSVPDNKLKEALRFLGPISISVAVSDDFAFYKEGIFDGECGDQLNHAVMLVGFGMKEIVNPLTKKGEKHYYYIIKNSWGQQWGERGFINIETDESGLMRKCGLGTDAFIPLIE
Excerpt: as §1, §2, §3, §4

Rhodesain = biological target: T4, Rhodesain (Trypanosoma brucei rhodesiense, UniProt Q95PM0); assay: Protease assay, fluorogenic substrate Z-Phe-Arg-AMC: Rhodesain; type: biochemical; conditions: for IC50: RD=Rhodesain, 25 °C, pH 5.5, 10µM substrate
T4 construct: made in house
T4 sequence (Q95PM0 entry or part of it): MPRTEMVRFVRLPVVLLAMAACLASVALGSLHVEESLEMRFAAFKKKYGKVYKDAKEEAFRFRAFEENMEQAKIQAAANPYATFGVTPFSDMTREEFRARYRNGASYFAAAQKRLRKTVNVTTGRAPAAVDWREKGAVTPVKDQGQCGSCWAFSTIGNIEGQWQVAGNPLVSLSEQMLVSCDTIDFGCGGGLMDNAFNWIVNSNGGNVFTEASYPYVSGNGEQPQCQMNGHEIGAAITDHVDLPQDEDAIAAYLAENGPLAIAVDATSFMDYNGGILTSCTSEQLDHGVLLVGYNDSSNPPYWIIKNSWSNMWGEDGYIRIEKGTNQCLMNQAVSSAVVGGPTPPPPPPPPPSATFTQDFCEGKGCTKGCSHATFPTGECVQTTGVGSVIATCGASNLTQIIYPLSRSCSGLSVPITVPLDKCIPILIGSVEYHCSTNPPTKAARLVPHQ
Excerpt: as §1, §2, §3, §4

cruzain (CR) = cruzain (CR) (Trypanosoma cruzi, UniProt P25779); assay: In vitro inhibition of cruzain, fluorescence of Z-Phe-Arg-AMC breakdown; type: biochemical
Sequence of cruzain (CR) (P25779 123-467): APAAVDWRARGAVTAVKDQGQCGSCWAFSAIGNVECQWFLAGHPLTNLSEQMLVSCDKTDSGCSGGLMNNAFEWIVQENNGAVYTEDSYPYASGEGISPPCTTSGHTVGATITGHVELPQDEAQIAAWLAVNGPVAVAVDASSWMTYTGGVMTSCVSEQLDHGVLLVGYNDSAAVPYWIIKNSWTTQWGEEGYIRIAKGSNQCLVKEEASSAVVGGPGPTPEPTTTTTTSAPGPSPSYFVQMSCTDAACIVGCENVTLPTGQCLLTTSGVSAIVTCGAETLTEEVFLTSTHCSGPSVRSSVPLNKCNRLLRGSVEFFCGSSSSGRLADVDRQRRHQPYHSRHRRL
Description: as §2, §4

[1] = tested on: T. cruzi Tulahuen strain C2C4; assay: Activity against T. cruzi in L-6 cells (beta-galactosidase, CPRG); type: cell-based; conditions: for IC50: Trypanosoma cruzi, TULAHUEN
Description: (§5) For all the susceptibility assays with parasites and cells, each drug was tested in duplicate and each assay was repeated at least once. • a. Activity against Trypanosoma brucei rhodesiense STIB900. This stock was isolated in 1982 from a human patient in Tanzania and after several mouse passages cloned and adapted to axenic culture conditions (Baltz et al 1985) Minimum Essential Medium (50 µl) supplemented with 25 mM HEPES, 1g/l additional glucose, 1% MEM non-essential amino acids (100x), 0.2 mM 2-mercaptoethanol, 1 mM Na-pyruvate and 15% heat inactivated horse serum was added to each well of a 96-well microtiter plate. Serial drug dilutions of eleven 3-fold dilution steps covering a range from 100 to 0.002 µg/ml were prepared. Then 4x10^3 bloodstream forms of T. b. rhodesiense STIB 900 in 50 µl was added to each well and the plate incubated at 37 °C under a 5 % CO2 atmosphere for 70 h. 10 µl Alamar Blue (resazurin, 12.5 mg in 100 ml double-distilled water) was then added to each well and incubation continued for a further 2-4 h (Raz et al 1997). Then the plates were read with a Spectramax Gemini XS microplate fluorometer (Molecular Devices Cooperation, Sunnyvale, CA, USA) using an excitation wave length of 536 nm and an emission wave length of 588 nm. The IC50 values were calculated by linear regression (Huber 1993) from the sigmoidal dose inhibition curves using SoftmaxPro software (Molecular Devices Cooperation, Sunnyvale, CA, USA). Melarsoprol (Arsobal Sanofi-Aventis, received from WHO) is used as control. • b. Activity against T. cruzi. Rat skeletal myoblasts (L-6 cells) were seeded in 96-well microtitre plates at 2000 cells/well in 100 µL RPMI 1640 medium with 10% FBS and 2 mM I-glutamine. After 24 h the medium was removed and replaced by 100 µl per well containing 5000 trypomastigote forms of T. cruzi Tulahuen strain C2C4 containing the β-galactosidase (Lac Z) gene (Buckner et al. 1996). After 48 h the medium was removed from the wells and replaced by 100 µl fresh medium with or without a serial drug dilution of eleven 3-fold dilution steps covering a range from 100 to 0.002 µg/ml. After 96 h of incubation the plates were inspected under an inverted microscope to assure growth of the controls and sterility. Then the substrate CPRG/Nonidet (50 µl) was added to all wells. A color reaction developed within 2-6 h and could be read photometrically at 540 nm. Data were analyzed with the graphic programme Softmax Pro (Molecular Devices), which calculated IC50 values by linear regression (Huber 1993) from the sigmoidal dose inhibition curves. […] Activity against L. donovani axenic amastigotes. Amastigotes of L. donovani strain MHOM/ET/67/L82 were grown in axenic culture at 37 °C in SM medium (Cunnigham et al. 1977) at pH 5.4 supplemented with 10% heat-inactivated fetal bovine serum under an atmosphere of 5% CO2 in air. One hundred microlitres of culture medium with 10^5 amastigotes from axenic culture with or without a serial drug dilution were seeded in 96-well microtitre plates. Serial drug dilutions of eleven 3-fold dilution steps covering a range from 90 to 0.002 µg/ml were prepared. After 70 h of incubation the plates were inspected under an inverted microscope to assure growth of the controls and sterile conditions. 10 µl of Alamar Blue (12.5 mg resazurin dissolved in 100 ml distilled water) (Mikus and Steverdig. 2000) were then added to each well and the plates incubated for another 2 h. Then the plates were read with a Spectramax Gemini XS microplate fluorometer (Molecular Devices Cooperation, Sunnyvale, CA, USA) using an excitation wave length of 536 nm and an emission wave length of 588 nm. Data were analyzed using the software Softmax Pro (Molecular Devices Cooperation, Sunnyvale, CA, USA). Decrease of fluorescence (= inhibition) was expressed as percentage of the fluorescence of control cultures and plotted against the drug concentrations. From the sigmoidal inhibition curves the IC50 values were calculated. • d.

[2] = tested on: P. falciparum NF54 strain; assay: Activity against P. falciparum, 3H-hypoxanthine incorporation assay; type: cell-based; conditions: for IC50: Plasmodium falciparum
[3] = tested on: Trypanosoma brucei rhodesiense STIB900; assay: Activity against Trypanosoma brucei rhodesiense STIB900 (Alamar Blue); type: cell-based; conditions: for IC50: Trypanosoma brucei
Description: as §5

[4] = CB=CathepsinB; 25 °C, pH 6.5, 100 µM substrate; read-out: CBIC50micM
[5] = CL=CathepsinL; 25 °C, pH 6.5, 6,25 µM substrate; read-out: CL(IC50)
[6] = read-out: CBIC50micM; CB=CathepsinB; 25 °C, pH 6.5, 100 µM substrate
[7] = read-out: CL(IC50); CL=CathepsinL; 25 °C, pH 6.5, 6,25 µM substrate

SMILES	CB(K2nd(M-1s-1)) (Cathepsin B (human); CB=CathepsinB) [M⁻¹ s⁻¹]	CL(K2nd(M-1s-1)) (Cathepsin L (human); CL=CathepsinL) [M⁻¹ s⁻¹]	IC50 (Cathepsin L (human); [5]) [µM]	FP2(K2nd(M-1s-1)) (Falcipain 2)	RD(K2nd(M-1s-1)) (Rhodesain) [M⁻¹ s⁻¹]	IC50 (Rhodesain) [µM]	CR(K2nd(M-1s-1)) (cruzain (CR)) [M⁻¹ s⁻¹]	IC50 (cruzain (CR)) [µM]	other results
CCOC(=O)/C=C/[C@@H](O)[C@H](CCc1ccccc1)NC(=O)[C@H](Cc1ccccc1)NC(=O)OCc1ccccc1	772	1127	13	557 M⁻¹ s⁻¹	3207	9.5			IC50 (Cathepsin B (human); [4]): 24 µM
CCOC(=O)/C=C/[C@@H](O)[C@H](C)NC(=O)[C@H](Cc1ccccc1)NC(=O)OCc1ccccc1		828	14.3	2,735 M-1s-1	10951	45.1			
O=C(O)/C=C/[C@@H](O)[C@H](CCc1ccccc1)NC(=O)[C@H](Cc1ccccc1)NC(=O)OCc1ccccc1		882	20	29 M⁻¹ s⁻¹					
CCOC(=O)/C=C/[C@@H](O)[C@H](CCc1ccccc1)NC(=O)[C@H](Cc1ccccc1)NC(=O)N1CCOCC1	4190	1860	2.45		36735	1.13	3615	3.75	IC50 (Cathepsin B (human); [4]): 1.13 µM
CCOC(=O)/C=C/C(=O)[C@H](CC(C)C)NC(=O)[C@H](Cc1ccccc1)NC(=O)OCc1ccccc1	138462	758621			1611111	0.0164	516667	0.0162	IC50 (Cathepsin B (human); [6]): 0.053 µM; IC50 (Cathepsin L (human); [7]): 0.0096 µM
CC(C)C[C@H](NC(=O)[C@H](Cc1ccccc1)NC(=O)OCc1ccccc1)C(=O)/C=C/S(=O)(=O)c1ccccc1	82248	383272			1361750	0.006	709411	0.0111	IC50 (Cathepsin B (human); [6]): 0.05 µM; IC50 (Cathepsin L (human); [7]): 0.00995 µM
CCOC(=O)C=CC(O)C(CCc1ccccc1)NC(=O)C(Cc1ccccc1)NC(=O)OCc1ccccc1 (single isomer, unassigned)	14	77							
O=C(Cn1ccnc1[N+](=O)[O-])NCc1ccccc1 [Benznidazole]									IC50 ([1]; L6, 96 h, replicate 1, L-6 cells, 96 h, read-out: T.cruzi. IC50 repl1): 657 ng/mL (≈ 2.52 µM); IC50 ([1]; L6, 96 h, replicate 2, L-6 cells, 96 h, read-out: T.cruzi. IC50 repl2): 522 ng/mL (≈ 2.01 µM); IC50 ([1]; L6, control value stated in the method text): 500 ± 200 ng/mL (≈ 1.92 µM); IC50 ([1]; L6, mean of replicates, read-out: T.cruzi. IC50 mean): 590 ng/mL (≈ 2.27 µM); T.cruzi. IC50 mean ([1]; mean of replicates): 0,516 micrograms/mL; T.cruzi. IC50 repl1 ([1]; replicate 1, L-6 cells, 96 h): 0,367 micrograms/mL; T.cruzi. IC50 repl2 ([1]; replicate 2, L-6 cells, 96 h): 0,664 micrograms/mL
CCN(CC)CCCC(C)Nc1ccnc2cc(Cl)ccc12 (stereo not shown) [Chloroquine, reference compound]									IC50 ([2]; NF54, read-out: P.falc NF54 IC50 mean, mean of replicates): 3 ng/mL (≈ 0.00938 µM); IC50 ([2]; NF54, read-out: P.falc NF54 IC50 repl1, replicate 1, erythrocytic stages, NF54): 3 ng/mL (≈ 0.00938 µM); IC50 ([2]; NF54, read-out: P.falc NF54 IC50 repl2, replicate 2, erythrocytic stages, NF54): 2 ng/mL (≈ 0.00625 µM); P.falc NF54 IC50 repl1 ([2]; replicate 1, erythrocytic stages, NF54): 0,002 micrograms/mL
Nc1nc(N)nc(Nc2ccc([As]3SCC(CO)S3)cc2)n1 (stereo not shown) [Melarsoprol, reference compound]									IC50 ([3]; 70 h, read-out: T.b.rhod. IC50 repl1, replicate 1, bloodstream forms, 70 h): 5 ng/mL; IC50 ([3]; 70 h, read-out: T.b.rhod. IC50 repl2, replicate 2, bloodstream forms, 70 h): 2 ng/mL; IC50 ([3]; read-out: T.b.rhod. IC50 mean, mean of replicates): 3 ng/mL; T.b.rhod. IC50 mean ([3]; mean of replicates): 0,004 micrograms/mL; T.b.rhod. IC50 repl1 ([3]; replicate 1, bloodstream forms, 70 h): 0,003 micrograms/mL; T.b.rhod. IC50 repl2 ([3]; replicate 2, bloodstream forms, 70 h): 0,004 micrograms/mL

— patent EP2975033A1, “Improved cysteine-protease inhibitors” (Universitat Jaume I, priority 2014, dated 2016)
